According to US9283247B2, “Chemically modified dendrimers” (Genzyme Corporation, priority 2007, dated 2016):

Columns and labels:
Format in all cases: cell-based
[1] = system: MMP-1; experiment: MMP-1 ELISA on supernatants of chondrocytes stimulated with IL-1β; conditions: Homo sapiens, Chondrocyte; chondrocytes pretreated 2 hours, IL-1β 24 hours; protein (ELISA); N/A = did not affect MMP levels; read-out: IC50 constants for inhibition of MMP activity, MMP-1
Description: (§1) The effects of dendrimer compounds comprising n-acyl urea terminal moieties (i.e., dd-NAU) were evaluated for MMP activity in chondrocytes. […] In some instances, these effects were compared to dendrimer compounds comprising glucosamine terminal moieties (i.e., dd-Gln) and/or ethyl dimethylaminopropylurea (EDU). Chondrocytes were grown to confluency in 6-well plates (4 donors). The chondrocytes were pretreated with dendrimers (e.g., dd-NAU or dd-Gln) or EDU for 2 hours and then stimulated with IL-1β for 24 hours. Supernatants were collected and MMP-1, -3, and 13 ELISA assays were performed. The cells were collected for RNA analysis (3 donors).
(§2) Chondrocytes were grown to confluency in 6-well plates (2 donors). […] Supernatants were collected and MMP-1, -3, and 13 ELISA assays were performed. Neutral Red assays and Calcien AM assays were also performed on the chondrocytes to determine cell viability.

[2] = system: MMP-3; experiment: MMP-3 ELISA on supernatants of chondrocytes stimulated with IL-1β; conditions: Homo sapiens, Chondrocyte; chondrocytes pretreated 2 hours, IL-1β 24 hours; protein (ELISA); N/A = did not affect MMP levels; read-out: IC50 constants for inhibition of MMP activity, MMP-3
Description: as §1, §2

[3] = system: MMP-13; experiment: MMP-13 ELISA on supernatants of chondrocytes stimulated with IL-1β; conditions: Homo sapiens, Chondrocyte; chondrocytes pretreated 2 hours, IL-1β 24 hours; protein (ELISA); N/A = did not affect MMP levels; read-out: IC50 constants for inhibition of MMP activity, MMP-13
Description: as §1, §2

For `N[C@H]1C(O)O[C@H](CO)[C@@H](O)[C@@H]1O` (stereo partly drawn) [Glucosamine], the IC50 [1] was 1420 µM, the IC50 [2] was 600 µM and the IC50 [3] was 1400 µM.
